Laboratory results published in ChEMBL document CHEMBL3991601, “The target landscape of clinical kinase drugs” (Science, 2017).
Activity calls are given as the source filed them.

How the values were obtained:
[1] = target: RAC-alpha serine/threonine-protein kinase (Homo sapiens, UniProt P31749)
[2] = target: Tyrosine-protein kinase BTK (Homo sapiens, UniProt Q06187)
[3] = target: Citron Rho-interacting kinase (Homo sapiens, UniProt O14578)
dCTP pyrophosphatase 1 = target: T1, dCTP pyrophosphatase 1 (Homo sapiens, UniProt Q9H773)
T1 sequence (Q9H773 whole entry): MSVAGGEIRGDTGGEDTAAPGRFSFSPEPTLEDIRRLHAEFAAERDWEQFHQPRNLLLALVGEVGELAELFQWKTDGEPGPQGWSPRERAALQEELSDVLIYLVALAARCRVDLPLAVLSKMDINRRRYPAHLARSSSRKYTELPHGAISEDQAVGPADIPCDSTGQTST

[4] = target: Inosine-5'-monophosphate dehydrogenase 2 (Homo sapiens, UniProt P12268)
[5] = target: T2, Dual specificity mitogen-activated protein kinase kinase 3 (Homo sapiens, UniProt P46734)
T2 sequence (P46734 whole entry): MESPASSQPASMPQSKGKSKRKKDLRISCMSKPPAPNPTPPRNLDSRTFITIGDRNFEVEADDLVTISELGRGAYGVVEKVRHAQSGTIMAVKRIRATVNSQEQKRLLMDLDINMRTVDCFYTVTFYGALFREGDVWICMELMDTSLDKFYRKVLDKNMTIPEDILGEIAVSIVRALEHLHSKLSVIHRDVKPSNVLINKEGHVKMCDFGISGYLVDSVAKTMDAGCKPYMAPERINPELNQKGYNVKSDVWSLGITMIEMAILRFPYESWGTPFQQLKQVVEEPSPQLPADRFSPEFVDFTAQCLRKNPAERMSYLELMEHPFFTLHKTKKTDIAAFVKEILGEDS

[6] = target: T3, Mitogen-activated protein kinase kinase kinase 3 (Homo sapiens, UniProt Q99759)
T3 sequence (Q99759 whole entry): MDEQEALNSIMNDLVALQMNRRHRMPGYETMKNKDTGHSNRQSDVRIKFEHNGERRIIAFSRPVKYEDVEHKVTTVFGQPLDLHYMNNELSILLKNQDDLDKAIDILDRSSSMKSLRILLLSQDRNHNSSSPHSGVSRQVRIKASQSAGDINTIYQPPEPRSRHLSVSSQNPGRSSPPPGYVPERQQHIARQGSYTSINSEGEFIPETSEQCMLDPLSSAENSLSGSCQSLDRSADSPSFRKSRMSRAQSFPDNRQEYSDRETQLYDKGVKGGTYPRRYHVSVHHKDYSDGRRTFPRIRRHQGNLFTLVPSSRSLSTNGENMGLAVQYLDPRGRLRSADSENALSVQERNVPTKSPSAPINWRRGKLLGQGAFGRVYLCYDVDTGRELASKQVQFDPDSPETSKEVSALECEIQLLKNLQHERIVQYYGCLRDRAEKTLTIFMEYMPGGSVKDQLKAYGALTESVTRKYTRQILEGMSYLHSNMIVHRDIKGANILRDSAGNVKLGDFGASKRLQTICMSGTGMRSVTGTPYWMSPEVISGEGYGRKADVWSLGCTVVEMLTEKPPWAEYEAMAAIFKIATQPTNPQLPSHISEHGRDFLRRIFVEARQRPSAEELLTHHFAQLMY

[7] = target: Mitogen-activated protein kinase kinase kinase kinase 4 (Homo sapiens, UniProt O95819)
[8] = target: T4, Dynamin-like GTPase OPA1, mitochondrial (Homo sapiens, UniProt O60313)
T4 sequence (O60313 whole entry): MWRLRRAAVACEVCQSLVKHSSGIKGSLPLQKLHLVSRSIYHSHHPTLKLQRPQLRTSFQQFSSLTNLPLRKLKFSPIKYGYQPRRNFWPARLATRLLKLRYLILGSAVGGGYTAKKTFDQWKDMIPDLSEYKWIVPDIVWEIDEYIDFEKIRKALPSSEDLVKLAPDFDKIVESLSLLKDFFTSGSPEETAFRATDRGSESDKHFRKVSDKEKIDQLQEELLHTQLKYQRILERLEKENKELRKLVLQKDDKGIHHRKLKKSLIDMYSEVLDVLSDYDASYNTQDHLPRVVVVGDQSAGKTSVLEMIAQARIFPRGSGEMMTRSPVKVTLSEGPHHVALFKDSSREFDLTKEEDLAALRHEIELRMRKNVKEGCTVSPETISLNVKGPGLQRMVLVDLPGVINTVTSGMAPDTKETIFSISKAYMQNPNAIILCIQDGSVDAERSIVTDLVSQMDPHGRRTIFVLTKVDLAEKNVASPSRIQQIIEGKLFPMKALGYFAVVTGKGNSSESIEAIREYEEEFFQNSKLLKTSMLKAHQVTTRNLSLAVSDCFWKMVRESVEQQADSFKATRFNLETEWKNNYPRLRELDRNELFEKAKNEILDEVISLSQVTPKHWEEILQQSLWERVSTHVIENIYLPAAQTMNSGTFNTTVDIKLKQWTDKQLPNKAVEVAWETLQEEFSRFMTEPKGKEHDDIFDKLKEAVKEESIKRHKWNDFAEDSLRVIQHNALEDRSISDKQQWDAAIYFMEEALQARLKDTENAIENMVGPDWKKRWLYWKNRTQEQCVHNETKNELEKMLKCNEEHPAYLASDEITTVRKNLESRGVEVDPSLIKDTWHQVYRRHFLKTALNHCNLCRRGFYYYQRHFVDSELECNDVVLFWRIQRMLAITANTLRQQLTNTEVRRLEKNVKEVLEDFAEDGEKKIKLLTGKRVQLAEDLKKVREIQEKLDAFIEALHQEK

[9] = target: 5'-AMP-activated protein kinase catalytic subunit alpha-1 (Homo sapiens, UniProt Q13131)
ADP/ATP translocase 3 = target: T5, ADP/ATP translocase 3 (Homo sapiens, UniProt P12236)
T5 sequence (P12236 whole entry): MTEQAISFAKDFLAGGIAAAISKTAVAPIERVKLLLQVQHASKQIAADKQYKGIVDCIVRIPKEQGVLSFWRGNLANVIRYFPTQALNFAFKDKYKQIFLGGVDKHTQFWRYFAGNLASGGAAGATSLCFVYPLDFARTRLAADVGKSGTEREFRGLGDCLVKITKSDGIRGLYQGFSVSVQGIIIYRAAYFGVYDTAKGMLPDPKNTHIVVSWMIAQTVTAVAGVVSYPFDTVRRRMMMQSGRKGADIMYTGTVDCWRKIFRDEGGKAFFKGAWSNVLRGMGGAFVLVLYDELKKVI

DNA topoisomerase 2-beta = DNA topoisomerase 2-beta (Homo sapiens, UniProt Q02880)
Wee1-like protein kinase = Wee1-like protein kinase (Homo sapiens, UniProt P30291)
Also: in the data inactive means no Kd found up to 30 µM.

Wee1-like protein kinase, sequence (P30291 whole entry): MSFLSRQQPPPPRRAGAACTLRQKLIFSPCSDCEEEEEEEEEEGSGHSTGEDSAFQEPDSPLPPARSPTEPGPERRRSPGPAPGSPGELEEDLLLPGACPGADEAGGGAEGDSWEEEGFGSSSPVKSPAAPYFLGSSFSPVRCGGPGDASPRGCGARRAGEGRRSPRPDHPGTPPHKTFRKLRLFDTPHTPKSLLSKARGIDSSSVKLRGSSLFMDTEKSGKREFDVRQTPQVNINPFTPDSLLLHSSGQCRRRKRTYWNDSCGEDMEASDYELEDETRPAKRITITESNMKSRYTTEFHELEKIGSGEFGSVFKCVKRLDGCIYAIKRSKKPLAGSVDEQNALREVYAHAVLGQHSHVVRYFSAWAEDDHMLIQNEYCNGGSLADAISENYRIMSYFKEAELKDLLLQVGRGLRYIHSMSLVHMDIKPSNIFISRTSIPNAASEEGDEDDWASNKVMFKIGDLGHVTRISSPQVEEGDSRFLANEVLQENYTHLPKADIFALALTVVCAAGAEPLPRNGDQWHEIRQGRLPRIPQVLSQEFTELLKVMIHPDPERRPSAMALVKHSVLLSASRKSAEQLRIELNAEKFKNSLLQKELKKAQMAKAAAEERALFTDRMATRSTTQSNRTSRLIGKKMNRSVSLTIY
5'-AMP-activated protein kinase catalytic subunit alpha-1, sequence (Q13131 whole entry): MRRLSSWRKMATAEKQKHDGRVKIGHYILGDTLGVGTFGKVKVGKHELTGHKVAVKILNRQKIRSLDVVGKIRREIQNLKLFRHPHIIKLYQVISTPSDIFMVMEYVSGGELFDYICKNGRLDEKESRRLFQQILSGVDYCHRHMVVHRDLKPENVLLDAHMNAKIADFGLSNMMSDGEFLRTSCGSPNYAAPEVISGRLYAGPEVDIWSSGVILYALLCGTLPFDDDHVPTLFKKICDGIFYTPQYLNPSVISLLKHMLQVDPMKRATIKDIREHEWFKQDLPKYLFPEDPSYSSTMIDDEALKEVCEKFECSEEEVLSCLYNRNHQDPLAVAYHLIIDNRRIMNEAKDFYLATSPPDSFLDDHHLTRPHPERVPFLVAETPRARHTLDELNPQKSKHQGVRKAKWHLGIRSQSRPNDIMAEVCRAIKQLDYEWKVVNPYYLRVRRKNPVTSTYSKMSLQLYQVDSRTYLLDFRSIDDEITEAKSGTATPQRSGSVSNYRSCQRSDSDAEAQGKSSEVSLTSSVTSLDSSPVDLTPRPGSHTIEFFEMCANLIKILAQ
RAC-alpha serine/threonine-protein kinase, sequence (P31749 whole entry): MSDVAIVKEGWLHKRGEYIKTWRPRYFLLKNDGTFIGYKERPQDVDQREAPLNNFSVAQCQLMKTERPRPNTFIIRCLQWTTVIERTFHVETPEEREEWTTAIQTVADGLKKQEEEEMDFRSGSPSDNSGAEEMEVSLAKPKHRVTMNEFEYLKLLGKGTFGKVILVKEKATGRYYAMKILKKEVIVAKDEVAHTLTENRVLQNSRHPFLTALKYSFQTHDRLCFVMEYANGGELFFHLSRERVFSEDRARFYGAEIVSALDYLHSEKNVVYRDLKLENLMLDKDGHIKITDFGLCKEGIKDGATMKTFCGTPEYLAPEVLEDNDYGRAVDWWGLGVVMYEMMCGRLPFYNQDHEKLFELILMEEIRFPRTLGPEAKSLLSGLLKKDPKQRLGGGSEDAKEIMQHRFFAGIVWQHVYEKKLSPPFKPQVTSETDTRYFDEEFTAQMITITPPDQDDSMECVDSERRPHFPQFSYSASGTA
DNA topoisomerase 2-beta, sequence (Q02880 whole entry): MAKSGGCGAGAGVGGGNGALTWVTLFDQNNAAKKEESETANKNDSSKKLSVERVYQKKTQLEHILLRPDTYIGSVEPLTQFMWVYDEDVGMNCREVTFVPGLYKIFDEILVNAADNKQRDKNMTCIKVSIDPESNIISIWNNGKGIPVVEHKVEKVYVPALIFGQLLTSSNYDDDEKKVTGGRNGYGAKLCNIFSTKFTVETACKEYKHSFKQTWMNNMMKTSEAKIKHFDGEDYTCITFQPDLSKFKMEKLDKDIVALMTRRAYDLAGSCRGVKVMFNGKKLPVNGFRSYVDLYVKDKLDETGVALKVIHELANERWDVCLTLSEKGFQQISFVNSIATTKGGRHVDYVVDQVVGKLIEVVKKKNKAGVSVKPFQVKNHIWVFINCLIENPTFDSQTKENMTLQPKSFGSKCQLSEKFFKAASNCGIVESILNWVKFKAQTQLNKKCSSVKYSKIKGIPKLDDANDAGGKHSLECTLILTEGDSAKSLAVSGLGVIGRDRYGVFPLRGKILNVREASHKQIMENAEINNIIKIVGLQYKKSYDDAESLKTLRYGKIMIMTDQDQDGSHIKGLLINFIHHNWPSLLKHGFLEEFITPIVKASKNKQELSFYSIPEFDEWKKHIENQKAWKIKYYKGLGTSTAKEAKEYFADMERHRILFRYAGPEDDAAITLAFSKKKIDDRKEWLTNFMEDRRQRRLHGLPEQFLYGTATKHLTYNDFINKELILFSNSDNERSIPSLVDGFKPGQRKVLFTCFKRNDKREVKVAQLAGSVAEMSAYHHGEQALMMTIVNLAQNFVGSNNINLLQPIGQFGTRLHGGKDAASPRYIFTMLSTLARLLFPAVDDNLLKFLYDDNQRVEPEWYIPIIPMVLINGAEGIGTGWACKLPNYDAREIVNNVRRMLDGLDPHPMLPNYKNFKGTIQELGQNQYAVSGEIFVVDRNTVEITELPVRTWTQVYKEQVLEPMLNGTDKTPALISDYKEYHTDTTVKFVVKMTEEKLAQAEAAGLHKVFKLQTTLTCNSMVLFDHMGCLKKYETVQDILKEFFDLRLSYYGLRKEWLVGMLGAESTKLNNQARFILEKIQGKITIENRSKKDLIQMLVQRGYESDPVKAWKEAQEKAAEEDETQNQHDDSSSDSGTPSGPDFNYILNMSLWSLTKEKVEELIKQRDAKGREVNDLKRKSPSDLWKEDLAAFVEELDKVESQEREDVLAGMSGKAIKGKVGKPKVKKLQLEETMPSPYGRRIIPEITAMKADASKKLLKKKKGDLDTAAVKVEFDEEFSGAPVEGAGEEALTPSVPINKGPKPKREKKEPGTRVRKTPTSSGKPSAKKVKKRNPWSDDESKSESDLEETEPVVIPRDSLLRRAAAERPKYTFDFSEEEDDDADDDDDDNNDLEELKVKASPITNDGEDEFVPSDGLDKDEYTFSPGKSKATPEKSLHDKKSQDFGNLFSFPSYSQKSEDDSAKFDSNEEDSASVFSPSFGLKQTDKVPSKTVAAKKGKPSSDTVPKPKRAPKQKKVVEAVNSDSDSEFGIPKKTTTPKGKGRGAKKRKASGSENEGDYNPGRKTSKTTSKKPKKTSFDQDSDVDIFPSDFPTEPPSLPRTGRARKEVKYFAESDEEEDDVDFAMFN
Tyrosine-protein kinase BTK, sequence (Q06187 whole entry): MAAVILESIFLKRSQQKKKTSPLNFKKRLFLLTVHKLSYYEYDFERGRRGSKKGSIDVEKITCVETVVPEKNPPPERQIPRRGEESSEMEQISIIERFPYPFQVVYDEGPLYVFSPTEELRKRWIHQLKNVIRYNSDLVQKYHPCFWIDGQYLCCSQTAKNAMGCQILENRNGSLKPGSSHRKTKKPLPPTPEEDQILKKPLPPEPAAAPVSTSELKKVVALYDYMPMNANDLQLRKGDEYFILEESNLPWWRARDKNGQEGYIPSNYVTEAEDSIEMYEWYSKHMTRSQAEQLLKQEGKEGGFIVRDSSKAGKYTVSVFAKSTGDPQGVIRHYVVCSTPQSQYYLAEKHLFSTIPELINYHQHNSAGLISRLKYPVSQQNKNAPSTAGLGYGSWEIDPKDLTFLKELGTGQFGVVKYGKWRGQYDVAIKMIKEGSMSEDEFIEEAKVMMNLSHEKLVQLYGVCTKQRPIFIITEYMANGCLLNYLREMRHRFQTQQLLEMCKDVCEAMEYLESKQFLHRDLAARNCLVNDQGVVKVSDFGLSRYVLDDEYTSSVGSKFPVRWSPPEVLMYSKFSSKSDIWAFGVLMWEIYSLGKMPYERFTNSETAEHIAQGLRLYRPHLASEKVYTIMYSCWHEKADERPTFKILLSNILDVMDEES

| Kd [1] | Kd [2] | Kd [3] | Kd (dCTP pyrophosphatase 1) | Kd [4] | Kd [5] | Kd [6] | Kd [7] | Kd [8] | Kd [9] | Kd (ADP/ATP translocase 3) | Kd (DNA topoisomerase 2-beta) | Kd (Wee1-like protein kinase) | Compound |
| --- | --- | --- | --- | --- | --- | --- | --- | --- | --- | --- | --- | --- | --- |
| > 30 µM (inactive) | > 30 µM (inactive) | > 30 µM (inactive) | > 30 µM (inactive) | > 30 µM (inactive) | > 30 µM (inactive) | > 30 µM (inactive) | > 30 µM (inactive) | > 30 µM (inactive) | > 30 µM (inactive) | > 30 µM (inactive) | > 30 µM (inactive) | > 30 µM (inactive) | COc1cc2ncnc(Nc3ccc(F)c(Cl)c3)c2cc1NC(=O)/C=C/CN1CCCCC1 [DACOMITINIB ANHYDROUS] |
| > 30 µM (inactive) | > 30 µM (inactive) | > 30 µM (inactive) | > 30 µM (inactive) | > 30 µM (inactive) | > 30 µM (inactive) | > 30 µM (inactive) | > 30 µM (inactive) | > 30 µM (inactive) | > 30 µM (inactive) | > 30 µM (inactive) | > 30 µM (inactive) | > 30 µM (inactive) | COc1cc(Nc2ncc(F)c(Nc3ccc4c(n3)N(COP(=O)(O)O)C(=O)C(C)(C)O4)n2)cc(OC)c1OC [FOSTAMATINIB] |
| > 30 µM (inactive) | > 30 µM (inactive) | > 30 µM (inactive) | > 30 µM (inactive) | > 30 µM (inactive) | > 30 µM (inactive) | > 30 µM (inactive) | > 30 µM (inactive) | > 30 µM (inactive) | > 30 µM (inactive) | > 30 µM (inactive) | > 30 µM (inactive) | > 30 µM (inactive) | C#Cc1cccc(Nc2ncnc3cc4c(cc23)OCCOCCOCCO4)c1 [ICOTINIB] |
| > 30 µM (inactive) | > 30 µM (inactive) | > 30 µM (inactive) | > 30 µM (inactive) | > 30 µM (inactive) | > 30 µM (inactive) | > 30 µM (inactive) | > 30 µM (inactive) | > 30 µM (inactive) | > 30 µM (inactive) | > 30 µM (inactive) | > 30 µM (inactive) | > 30 µM (inactive) | COc1cc2ncnc3c2cc1OCCCCCN(C)Cc1ccc(Br)cc1N3 [JNJ-26483327] |
| > 30 µM (inactive) | > 30 µM (inactive) | > 30 µM (inactive) | > 30 µM (inactive) | > 30 µM (inactive) | > 30 µM (inactive) | > 30 µM (inactive) | > 30 µM (inactive) | > 30 µM (inactive) | > 30 µM (inactive) | > 30 µM (inactive) | > 30 µM (inactive) | > 30 µM (inactive) | Cc1ccc(C(=O)Nc2ccc(Oc3cc4cnn(C)c4cc3-c3cn[nH]c3)c(F)c2)c(=O)n1-c1ccc(F)cc1 [MERESTINIB] |
| > 30 µM (inactive) | > 30 µM (inactive) | > 30 µM (inactive) | > 30 µM (inactive) | > 30 µM (inactive) | > 30 µM (inactive) | > 30 µM (inactive) | > 30 µM (inactive) | > 30 µM (inactive) | > 30 µM (inactive) | > 30 µM (inactive) | > 30 µM (inactive) | > 30 µM (inactive) | O=C(NOC[C@H](O)CO)c1ccc(F)c(F)c1Nc1ccc(I)cc1F [MIRDAMETINIB] |
| > 30 µM (inactive) | > 30 µM (inactive) | > 30 µM (inactive) | > 30 µM (inactive) | > 30 µM (inactive) | > 30 µM (inactive) | > 30 µM (inactive) | > 30 µM (inactive) | > 30 µM (inactive) | > 30 µM (inactive) | > 30 µM (inactive) | > 30 µM (inactive) | > 30 µM (inactive) | COc1cccc2cc(-c3nc([C@H]4CC[C@H](C(=O)O)CC4)n4ncnc(N)c34)[nH]c12 [OSI-027] |
| > 30 µM (inactive) | > 30 µM (inactive) | > 30 µM (inactive) | > 30 µM (inactive) | > 30 µM (inactive) | > 30 µM (inactive) | > 30 µM (inactive) | > 30 µM (inactive) | > 30 µM (inactive) | > 30 µM (inactive) | > 30 µM (inactive) | > 30 µM (inactive) | > 30 µM (inactive) | O=C(Nc1ccc(OC(F)(F)F)cc1)c1sccc1NCc1ccnc2ccccc12 [OSI-930] |

| Compound | Kd [1] | Kd [2] | Kd [3] | Kd (dCTP pyrophosphatase 1) | Kd [4] | Kd [5] | Kd [6] | Kd [7] | Kd [8] | Kd [9] | Kd (ADP/ATP translocase 3) | Kd (DNA topoisomerase 2-beta) | Kd (Wee1-like protein kinase) |
| --- | --- | --- | --- | --- | --- | --- | --- | --- | --- | --- | --- | --- | --- |
| CCc1nc(C(N)=O)c(Nc2ccc(N3CCC(N4CCN(C)CC4)CC3)c(OC)c2)nc1NC1CCOCC1 [GILTERITINIB] | > 30 µM (inactive) | > 30 µM (inactive) | 2.35 µM (active) | > 30 µM (inactive) | > 30 µM (inactive) | > 30 µM (inactive) | > 30 µM (inactive) | 0.202 µM (active) | > 30 µM (inactive) | > 30 µM (inactive) | 0.495 µM | > 30 µM (inactive) | > 30 µM (inactive) |
| Cc1c(Cn2c(C)nc3c(C(=O)O)cc(N4CCOCC4)cc32)cccc1C(F)(F)F [GSK-2636771] | > 30 µM (inactive) | > 30 µM (inactive) | > 30 µM (inactive) | > 30 µM (inactive) | > 30 µM (inactive) | > 30 µM (inactive) | > 30 µM (inactive) | > 30 µM (inactive) | > 30 µM (inactive) | > 30 µM (inactive) | > 30 µM (inactive) | > 30 µM (inactive) | > 30 µM (inactive) |
| C=CC(=O)Nc1cc(Nc2nccc(-c3cn(C)c4ccccc34)n2)c(OC)cc1N(C)CCN(C)C [OSIMERTINIB] | > 30 µM (inactive) | 0.525 µM (active) | > 30 µM (inactive) | > 30 µM (inactive) | > 30 µM (inactive) | > 30 µM (inactive) | > 30 µM (inactive) | > 30 µM (inactive) | > 30 µM (inactive) | > 30 µM (inactive) | > 30 µM (inactive) | > 30 µM (inactive) | > 30 µM (inactive) |
